Test results reported in ChEMBL document CHEMBL3399935, “Structure-activity relationships of benzhydrol derivatives based on 1'-acetoxychavicol acetate (ACA) and their inhibitory activities on multiple myeloma cell growth via inactivation of the NF-κB pathway” (Bioorg Med Chem, 2015).
The source made the active and inactive calls. The rule behind the calls is not given here.

Legend:
[1] = Cytotoxicity against human HL60 cells assessed as growth inhibition after 3 days; type: functional, cell-based; conditions: HL-60, 72 h
[2] = Cytotoxicity against human IM9 cells assessed as growth inhibition after 3 days; type: functional, cell-based; conditions: IM-9, 72 h
[3] = molecular target: T1, Nuclear factor NF-kappa-B complex (Homo sapiens) (UniProt Q00653+P19838+Q04206); experiment: Inhibition of NF-kappaB in human IM9 cells assessed as inhibition of nuclear translocation at 10 uM after 30 mins by NF-kappaB (p65) transcription factor assay; type: cell-based; conditions: IM-9
T1 sequence (P19838 whole entry, looked up): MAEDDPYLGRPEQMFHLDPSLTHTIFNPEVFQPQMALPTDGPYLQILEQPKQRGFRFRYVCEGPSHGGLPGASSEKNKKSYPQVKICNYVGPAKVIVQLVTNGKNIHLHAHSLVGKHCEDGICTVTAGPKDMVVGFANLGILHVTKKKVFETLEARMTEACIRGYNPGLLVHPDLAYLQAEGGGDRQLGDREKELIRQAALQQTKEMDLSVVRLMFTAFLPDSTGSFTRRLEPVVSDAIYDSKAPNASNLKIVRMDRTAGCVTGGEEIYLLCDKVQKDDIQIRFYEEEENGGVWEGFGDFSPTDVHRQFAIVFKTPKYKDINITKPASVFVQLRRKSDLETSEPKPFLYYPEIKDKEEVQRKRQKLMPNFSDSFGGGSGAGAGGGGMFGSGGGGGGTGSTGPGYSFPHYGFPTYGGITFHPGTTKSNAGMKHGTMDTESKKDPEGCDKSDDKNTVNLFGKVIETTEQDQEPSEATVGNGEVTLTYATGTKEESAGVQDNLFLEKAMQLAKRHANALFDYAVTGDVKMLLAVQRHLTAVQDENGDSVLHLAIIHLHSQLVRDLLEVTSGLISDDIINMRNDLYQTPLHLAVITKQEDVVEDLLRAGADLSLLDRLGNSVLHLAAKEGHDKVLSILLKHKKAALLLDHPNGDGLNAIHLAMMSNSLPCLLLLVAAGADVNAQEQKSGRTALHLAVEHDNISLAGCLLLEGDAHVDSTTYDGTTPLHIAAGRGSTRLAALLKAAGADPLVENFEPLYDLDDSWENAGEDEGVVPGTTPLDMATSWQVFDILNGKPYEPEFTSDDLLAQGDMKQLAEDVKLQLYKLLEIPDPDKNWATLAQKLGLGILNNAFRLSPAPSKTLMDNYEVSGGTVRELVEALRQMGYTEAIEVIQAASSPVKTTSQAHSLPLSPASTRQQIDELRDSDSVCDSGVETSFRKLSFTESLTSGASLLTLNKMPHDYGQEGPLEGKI
T1 sequence (Q00653 whole entry, looked up): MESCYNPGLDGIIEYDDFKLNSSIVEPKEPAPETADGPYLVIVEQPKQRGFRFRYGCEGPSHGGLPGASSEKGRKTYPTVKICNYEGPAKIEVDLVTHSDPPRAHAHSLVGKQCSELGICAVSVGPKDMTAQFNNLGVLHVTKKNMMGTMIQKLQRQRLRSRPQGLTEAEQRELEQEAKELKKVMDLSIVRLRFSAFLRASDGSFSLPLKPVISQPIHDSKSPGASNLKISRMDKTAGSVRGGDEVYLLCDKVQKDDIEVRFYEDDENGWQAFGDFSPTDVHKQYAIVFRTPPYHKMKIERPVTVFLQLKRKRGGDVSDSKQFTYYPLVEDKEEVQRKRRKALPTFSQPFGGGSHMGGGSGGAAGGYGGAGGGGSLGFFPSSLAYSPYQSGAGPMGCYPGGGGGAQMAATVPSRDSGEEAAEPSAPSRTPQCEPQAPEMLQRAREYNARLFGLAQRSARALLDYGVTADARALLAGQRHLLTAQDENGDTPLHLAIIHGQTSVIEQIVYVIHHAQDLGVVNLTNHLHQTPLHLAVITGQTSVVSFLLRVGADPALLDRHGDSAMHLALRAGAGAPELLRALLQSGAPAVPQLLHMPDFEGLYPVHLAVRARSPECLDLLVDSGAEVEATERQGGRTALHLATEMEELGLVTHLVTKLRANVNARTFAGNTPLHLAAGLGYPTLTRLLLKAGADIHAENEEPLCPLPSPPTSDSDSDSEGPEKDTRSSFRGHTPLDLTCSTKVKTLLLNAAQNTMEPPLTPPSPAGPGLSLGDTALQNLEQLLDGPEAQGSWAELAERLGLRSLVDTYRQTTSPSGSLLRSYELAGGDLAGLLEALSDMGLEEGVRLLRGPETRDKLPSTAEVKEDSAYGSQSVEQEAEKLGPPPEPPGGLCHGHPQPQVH
T1 sequence (Q04206 whole entry, looked up): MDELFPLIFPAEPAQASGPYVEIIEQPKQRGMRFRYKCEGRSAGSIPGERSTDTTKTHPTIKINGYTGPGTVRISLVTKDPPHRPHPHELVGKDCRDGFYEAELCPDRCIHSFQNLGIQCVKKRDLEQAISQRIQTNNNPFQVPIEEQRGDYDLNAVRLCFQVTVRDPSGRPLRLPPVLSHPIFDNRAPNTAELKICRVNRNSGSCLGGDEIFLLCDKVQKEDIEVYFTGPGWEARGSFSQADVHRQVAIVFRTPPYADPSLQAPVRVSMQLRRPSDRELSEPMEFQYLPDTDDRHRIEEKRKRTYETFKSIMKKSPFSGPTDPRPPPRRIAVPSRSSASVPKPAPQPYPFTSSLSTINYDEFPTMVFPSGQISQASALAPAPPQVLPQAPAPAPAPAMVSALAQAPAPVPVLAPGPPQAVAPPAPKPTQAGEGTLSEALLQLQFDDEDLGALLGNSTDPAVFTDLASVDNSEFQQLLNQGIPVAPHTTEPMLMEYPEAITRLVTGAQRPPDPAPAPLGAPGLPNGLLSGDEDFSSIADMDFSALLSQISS

[4] = molecular target: T1, Nuclear factor NF-kappa-B complex (Homo sapiens); experiment: Inhibition of NF-kappaB in human IM9 cells assessed as inhibition of nuclear translocation at 1 uM after 30 mins by NF-kappaB (p65) transcription factor assay; type: cell-based; conditions: IM-9
[5] = tested on: IM-9; experiment: Cytotoxicity against human IM9 cells assessed as growth inhibition at 10 uM after 3 days; type: functional, cell-based
[6] = tested on: HL-60; experiment: Cytotoxicity against human HL60 cells assessed as growth inhibition at 10 uM after 3 days; type: functional, cell-based

| inhibition [3] | SMILES | IC50 [1] | IC50 [2] | also measured |
| --- | --- | --- | --- | --- |
| – | CC(=O)Oc1ccc(C(OC(C)=O)c2ccc3ccccc3c2)cc1 (stereo not given) | 2200 nM | – | – |
| 85% | CC(=O)Oc1ccc(C(OC(C)=O)c2c3ccccc3cc3ccccc23)cc1 (stereo not given) | 120 nM | 230 nM | inhibition [4]: 32% |
| – | CC(=O)Oc1ccc(C(OC(C)=O)c2cccc3ccccc23)cc1 (stereo not given) | 290 nM | – | – |
| – | CC(=O)Oc1ccc(C(OC(C)=O)c2cc(-c3ccccc3)cc(-c3ccccc3)c2)cc1 (stereo not given) | 1100 nM | – | – |
| inactive | CC(=O)Oc1ccc2c(c1)-c1ccccc1C2OC(C)=O (stereo not given) | > 10000 nM | – | inhibition [5]: inactive |
| – | CC(=O)Oc1ccc2c(c1)CCc1ccccc1C2OC(C)=O (stereo not given) | 2800 nM | – | – |
| – | CC(=O)Nc1ccc(C(OC(C)=O)c2ccccc2)cc1 (stereo not given) | – | – | inhibition [6]: inactive |
| 61% | CC(=O)Oc1ccc(C(OC(C)=O)c2ccccc2)cc1 (stereo not given) | 3500 nM | 2500 nM | – |
| – | CC(=O)NC(c1ccccc1)c1ccc(OC(C)=O)cc1 (stereo not given) | – | – | inhibition [6]: inactive |

| SMILES | inhibition [3] | IC50 [1] | IC50 [2] | also measured |
| --- | --- | --- | --- | --- |
| C=C[C@H](OC(C)=O)c1ccc(OC(C)=O)cc1 [1'-ACETOXYCHAVICOL ACETATE] | 70% | 2000 nM | 2100 nM | inhibition [4]: 0% |
